This data set in a line: gradient 5% acetonitrile 3 min, to 50% in 2 min, to 85% in 15 min, held 3 min, 100 µL/min. As to conditions: column: Zorbax Extend-C18 2.1 x 50 mm; eluents: water / acetonitrile, 0.1% formic acid. The essentials: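 Standards, all pure, were combined into mixtures of ~100 molecules and run at 100 μL/min on a Zorbax Extend-C18 column (2.1 × 50 mm, 1.8 μm) with water and acetonitrile, each containing 0.1% formic acid. A coupled quadrupole time-of-flight mass spectrometer operated in positive and negative ionization mode. Retention time values come from computationally picked adduct peaks, each inspected manually.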
Turning to `O=C(c1ccco1)N1CCN(S(=O)(=O)c2cc3c4c(c2)CCC(=O)N4CCC3)CC1`, the RP-LC retention time was found to be 690 s.
`CC(C)CCNC(=O)Cn1nc(S(=O)(=O)c2cccc(F)c2)ccc1=O` displayed an RP-LC retention time of 757 s.
Under `Cc1ccc(C(=O)N2CCc3cc(CNC(=O)c4ccnn4C)ccc32)cc1` stands 821 s.
The molecule `COc1cc(N)c(Cl)cc1C(=O)CCC1CCN(CCNS(C)(=O)=O)CC1` had an RP-LC retention time of 673 s.
With `CCCN1C(=O)c2[nH]nc(-c3ccc(OC)cc3)c2C1c1cccnc1` (stereo not given), the RP-LC retention time was 656 s.
On to `Fc1ccc(CN2CCCCC2c2nncn2CC2CC2)cc1F` (stereo not given), for which the RP-LC retention time was 619 s.
In turn, `Cc1ccc(-c2nc(-c3cccc(-c4ccnn4C)c3)no2)cc1F` had an RP-LC retention time of 1250 s.
Regarding `CSc1ccc(-c2nc3cnccn3c2NC2CCCC2)cc1`, the RP-LC retention time was found to be 914 s.
`COc1ccc(-c2nc3cnccn3c2NCCC(=O)Nc2ccc3c(c2)OCCO3)cc1`: the RP-LC retention time came out at 676 s.
Take `CN1C(=O)c2ccccc2Oc2ccc(C(=O)NCCCc3ccccc3)cc21`: the RP-LC retention time came to 964 s.
Under `Cn1cc(-c2cc3n(n2)CCCN3C(=O)CCC(=O)NCc2ccco2)c2ccccc21` stands 754 s; under `Cc1ccn2cc(C(=O)N3CCN(c4ccc(Cl)cc4)CC3)nc2c1`, 715 s; under `Cc1ccsc1CN1CCCC1c1nnc2n1CCN(C(=O)C(C)C)CC2` (stereo not given), 585 s.
`Cc1ccc(CNC(=O)C2(C)CN(S(C)(=O)=O)CC(=O)N2CCC(C)C)cc1` (stereo not given) registered an RP-LC retention time of 865 s.
As for `O=C(NCc1ccccc1)C1CCCN(c2ncnc3c2oc2ccccc23)C1` (stereo not given), the RP-LC retention time amounted to 754 s.
The molecule `COc1ccc(-c2nc3cccc(C)n3c2Nc2ccc(C)cc2)cc1` had an RP-LC retention time of 757 s.
On to `CC(C)Oc1ccc(-c2noc(Cn3ncn4nc(-c5ccc(F)cc5)cc4c3=O)n2)cc1`, for which the RP-LC retention time turned out to be 1210 s.
With `CCCS(=O)(=O)c1nc2ccc(NS(=O)(=O)c3ccc(F)c(C)c3)cc2s1`, the RP-LC retention time is 983 s.
`CCn1ccc2c(cc(C(=O)Nc3ccc(Br)cc3C)n2C)c1=O` returned an RP-LC retention time of 832 s.
The molecule `Cc1ccc(Nc2nc(-c3ccc(C)cc3)c(CC(=O)O)s2)cc1` showed an RP-LC retention time of 946 s.
In turn, `Fc1ccc(N2CCN(c3nnc(SCc4cccnc4)s3)CC2)cc1` registered an RP-LC retention time of 633 s.
`CC1=C(c2ccc(C)c(C)c2)S(=O)(=O)N=C1N1CCC(C(=O)NC(C)Cc2ccco2)CC1` (stereo not given) yielded an RP-LC retention time of 855 s.
In the case of `Cn1cccc1C(=O)C(=O)Nc1cccc2c1CCCC2` it was 928 s; in that of `Cc1scc2nc(C(=O)Nc3ccccc3)nc(N(C)C)c12`, 658 s.
`Cc1nc(-c2noc(-c3ccncc3)n2)cn1CC(=O)N1CCN(c2ccccc2)CC1`: the RP-LC retention time was found to be 673 s.
`CCOc1ccc(-c2noc(CS(=O)(=O)c3cc(C)c(C)cc3C)n2)cc1` registered an RP-LC retention time of 1110 s.
In the case of `c1ccc(-c2ccc(C(c3ccccc3)n3ccnc3)cc2)cc1` (stereo not given), the RP-LC retention time was found to be 906 s.
Turning to `COc1ccccc1OCc1nc(-c2ccc3ncn(C(C)C)c3c2)no1`, the RP-LC retention time stood at 729 s.
With `O=C(NCCc1ccccc1)N1CCC(c2noc(-c3ccncc3)n2)C1` (stereo not given), the RP-LC retention time was determined as 731 s.
For `Cc1nn(C)cc1C(C)NC(=O)C1CCN(c2cn[nH]c(=O)c2)CC1` (stereo not given), the RP-LC retention time worked out at 568 s.
In the case of `Cc1nc2cc(-c3noc(-c4ccc(Br)o4)n3)ccc2o1` it was 1090 s.
In the case of `COc1cccc(Cn2nnc(C(=O)O)c2C)c1` it was 666 s.
In the case of `Cc1ccc(CN2CCN(C(=O)c3cccc4[nH]cc(CN5CCSCC5)c34)CC2)cc1`, the RP-LC retention time turned out to be 593 s.
Molecule `CCc1noc(NC(C)=O)c1-c1ccc(OC)c(S(=O)(=O)Nc2cc(OC)ccc2OC)c1` showed an RP-LC retention time of 774 s.
Regarding `Cc1ccc(C)c(NC(=O)N2CCCN(c3ccc(=O)n(-c4ccccc4)n3)CC2)c1`, the RP-LC retention time worked out at 745 s.
Consider `CN(Cc1ccccc1)C(=O)C1CC(=O)N(CCc2c[nH]c3ccc(Cl)cc23)C1` (stereo not given), for which the RP-LC retention time was 863 s.
Consider `Cc1ccc(C)c(NC(=O)CSc2nc(N3CCCCC3)nc3ccccc23)c1`, for which the RP-LC retention time was 804 s.
Molecule `CCOc1ccccc1C(=O)NCc1nc(C)no1` gave an RP-LC retention time of 684 s.
Take `CCOC(=O)C(=O)Nc1ccc(-c2nc(-c3cc(C)ccc3C)co2)cc1`: the RP-LC retention time came to 1180 s.
The molecule `O=C(NCc1ccc(Br)cc1)c1ccc(=O)n(CCN2CCCC2)c1` returned an RP-LC retention time of 630 s.
Under `CCCS(=O)(=O)c1nc2ccc(NS(C)(=O)=O)cc2s1` stands 755 s; under `COc1cc2c(cc1OC)C1C(C(=O)NCCN3CCOCC3)c3ccccc3C(=O)N1CC2` (stereo not given), 590 s; under `O=C(CC1CCN(C(=O)Nc2ccc(F)cc2F)CC1)N1CCCCC1`, 722 s.
Regarding `CN(CC1(C)CCOCC1)S(=O)(=O)c1ccc(F)c(F)c1`, the RP-LC retention time came to 910 s.
In the case of `CC(C)(C)c1csc(-c2csc(S(=O)(=O)Nc3ccc(F)c(Cl)c3)c2)n1` it was 1310 s; in that of `CC(C)N1CCn2cc(S(=O)(=O)NCc3ccc(F)cc3Cl)cc2C1=O`, 788 s.
Molecule `O=C(NCCC1=CCCCC1)C1CCN(Cc2cc3ccccc3n2Cc2ccccc2Cl)CC1` had an RP-LC retention time of 924 s.
Consider `COC(=O)Cn1nc2c(-c3nc(-c4ccc(Cl)cc4)no3)cccn2c1=O`, for which the RP-LC retention time amounted to 911 s.
For `Cc1ccc(-c2nnc(-c3cccc(S(=O)(=O)N4CCSCC4)c3)o2)cc1`, the RP-LC retention time is 1100 s.
For `COC(=O)c1ccc(NC(=O)N2CCC3(CC2)N(CC2CC2)C(=O)CS3=O)cc1` (stereo not given), the RP-LC retention time came out at 674 s.
`Cc1cc(C)c2c(n1)SCCN2C(=O)CCC(=O)NCc1ccc(Cl)cc1` had an RP-LC retention time of 696 s.
The molecule `CCCOC(=O)c1ccc(Nc2nc(C(=O)OCC)nc3ccccc23)cc1` had an RP-LC retention time of 1020 s.
In the case of `O=C(Cn1ncc2c(N3CCN(c4ccccn4)CC3)ncnc21)Nc1cccc(Cl)c1` it was 638 s; in that of `O=C(CCn1nnc2cc(-c3noc(CCC4CCCC4)n3)ccc21)N1CCCC1`, 1050 s; in that of `Cc1cc(C)cc(N2CCC(NC(=O)Cc3ccsc3)C2=O)c1` (stereo not given), 637 s.
In turn, `CCCCNC(=O)Cc1nnc(-c2ccc(C)cc2)o1` gave an RP-LC retention time of 755 s.
`CCNC(=O)c1nc(Nc2ccc(C)cc2)c2ccccc2n1`: the RP-LC retention time stood at 705 s.
For `CC1=C(C(=O)Nc2ccc(F)cc2C)C2(CCCCCC2)OC1=O`, the RP-LC retention time is 972 s.
Consider `CCOc1ccccc1NC(=O)C1CCN(S(C)(=O)=O)c2cc(C)ccc2O1` (stereo not given), for which the RP-LC retention time is 830 s.
In the case of `CCn1cc(-c2nc(C(=O)Nc3ccc(C(=O)OC)cc3)cs2)c2cccnc21` it was 1080 s; in that of `Cc1nn(C)c2nc(OC(C)C(=O)NCc3cccs3)cc(-c3ccccc3)c12` (stereo not given), 1040 s.
Molecule `O=c1ccc(N2CCCN(S(=O)(=O)c3ccc(F)c(F)c3)CC2)nn1-c1ccccc1` came in with an RP-LC retention time of 861 s.
Turning to `CC(C)NC(=O)C1CCN(c2cnc(N3CCSCC3)nc2)CC1`, the RP-LC retention time turned out to be 629 s.
In the case of `CC(C)[C@@H]1NC(=O)[C@H](Cc2ccccc2)NC(=O)[C@@H](CC(=O)O)NC(=O)CNC(=O)[C@H](CCCN=C(N)N)NC1=O` it was 624 s; in that of `O=C(NCCCn1ccnc1)C1CC(=O)N(CCc2c[nH]c3ccc(Cl)cc23)C1` (stereo not given), 603 s.
In turn, `NCCC1CCN(C(=O)Nc2ccccc2)CC1` displayed an RP-LC retention time of 577 s.
As to `Cc1ccc2c(C(=O)N3CCC(C)CC3)cc(NC(=O)C3CCC3)cc2n1`, the RP-LC retention time came out at 652 s.
The molecule `Cc1oc(C2CCN(S(=O)(=O)c3ccc(F)c(F)c3)CC2)nc1C(=O)N1CCCC1` displayed an RP-LC retention time of 936 s.
In the case of `O=C(c1ccc(Cl)c(N2C(=O)CCS2(=O)=O)c1)N1CCN(c2ncccn2)CC1` it was 641 s; in that of `CCOC(=O)c1ccc(N2C(=O)c3n[nH]c(C)c3C2c2ccc(OC)cc2OC)cc1` (stereo not given), 878 s; in that of `CCN1CCN(C(=O)c2nc3ccccn3c2-c2ccc(Cl)cc2)CC1`, 591 s.
In the case of `Cc1ccc(-c2nnc(Cc3nc(-c4ccccc4F)no3)o2)cc1C`, the RP-LC retention time is 1040 s.
In turn, `Cn1nccc1C(=O)Nc1sccc1-c1nc2ccccc2s1` showed an RP-LC retention time of 1280 s.
In turn, `CCc1ccc(CN2CCn3c(nn(C)c3=O)C2)cc1` had an RP-LC retention time of 689 s.
As for `CC(C)CN1C(=O)CCc2cc(NS(=O)(=O)c3ccc(Cl)cc3)ccc21`, the RP-LC retention time turned out to be 946 s.
The molecule `COCCNC(=O)CN1c2ccccc2NC2=C(C(=O)CC(C)(C)C2)C1c1ccccc1OC` (stereo not given) displayed an RP-LC retention time of 756 s.
Molecule `CC1Cc2ccccc2N1C(=O)c1ccc(=O)n(CCC(=O)N2CCN(C3CCCCC3)CC2)n1` (stereo not given) registered an RP-LC retention time of 654 s.
Under `Clc1ccc(-c2cc3c(N4CCN(c5ccccn5)CC4)nccn3n2)cc1` stands 727 s.
In turn, `O=S(=O)(Nc1cccn2ncnc12)c1cccc(C(F)(F)F)c1` registered an RP-LC retention time of 804 s.
Take `COC(=O)c1c(NCCc2cccs2)c2cccc(Cl)c2[nH]c1=O`: the RP-LC retention time amounted to 823 s.
